# Results reported in patent publication EP0127076A2, “Histargin, a microbiological process for its preparation, its use as a medicament, and the strain Streptomyces roseoviridis having the ability to produce histargin” (MICROBIAL CHEMISTRY RESEARCH FOUNDATION, priority 1983, dated 1984).
# Key:
# Wistar rats = assay: potentiation of morphine-induced analgesia, tail-flick technique in morphine-unresponsive rats; type: in vivo
# carboxypeptidase B = molecular target: T1, carboxypeptidase B (Sus scrofa, UniProt P09955); assay: anti-carboxypeptidase B activity (hippuryl-L-lysine substrate, cyanuric chloride colour reaction); type: biochemical; conditions: purified carboxypeptidase B from the pancreas of pigs, 37°C, pH 8.0; read-out: 50 % inhibition (IC50) against carboxypeptidase B (converted)
# T1 construct: purified carboxypeptidase B (a product of Boehringer-Mannheim obtained from the pancreas of pigs); purchased Boehringer-Mannheim; host or cells: pig pancreas
# T1 sequence (P09955 111-416): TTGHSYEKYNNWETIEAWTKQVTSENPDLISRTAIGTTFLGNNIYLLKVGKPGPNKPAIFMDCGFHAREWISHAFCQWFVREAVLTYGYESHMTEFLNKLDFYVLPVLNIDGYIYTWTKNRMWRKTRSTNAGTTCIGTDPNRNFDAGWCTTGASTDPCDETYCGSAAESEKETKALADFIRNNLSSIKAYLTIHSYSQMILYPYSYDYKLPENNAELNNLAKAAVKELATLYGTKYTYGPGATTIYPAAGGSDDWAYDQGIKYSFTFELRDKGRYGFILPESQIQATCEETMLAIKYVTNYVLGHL
# Experimental: Histargin in the cultivation and purification steps was traced by measuring anti-carboxypeptidase B activity. Anti-carboxypeptidase B activity was measured in the following way according to an improved method based on the angiotensin I transferase activity determination method described in M.Hayakari et al., "Analytical Biochemistry," 84, 361-369, 1978.
# A mixed solution was prepared by adding 0.25 ml of 0.05M Tris-hydrochloric acid buffer solution (pH 8.0) and 0.15 ml of a solution containing a histargin sample to 0.05 ml of 0.05M hippuryl-L-lysine (a product of Peptide Institute). The mixed solution was heated for 3 minutes at 37°C, and 0.05 ml of an aqueous solution of 1 µg/ml of purified carboxypeptidase B (a product of Boehringer-Mannheim obtained from the pancreas of pigs) was added to the mixed solution. To the resulting mixture was added 0.03 ml of 1N sodium hydroxide to terminate the reaction. Fifteen minutes later, 2 ml of a 1 % methyl cellosolve solution of cyanuric chloride was added for a color reaction. After the mixture was allowed to stand for 15 minutes at room temperature, the absorbance (a) at 382 nm was measured. Separately, there was measured the blank absorbance (b) of the same reaction mixture except that the histargin sample was not contained. The percent inhibition against carboxypeptidase B was calculated from the equation [(b - a)/b] x 100.
# Slc-CDF1 mice = assay: cell-mediated immunity: delayed-type hypersensitivity (D.T.H.) to sheep red blood cell, footpad swelling; type: in vivo; conditions: normal mice, 5, 0.5, 0,05 and 0.005 mg/kg once intraperitoneally; statement on Table 1 (image)
# Experimental: This effect was investigated using as its index the degree of delayed- type hypersensitivity (D.T.H.) to sheep red blood cell (SRBC) injectd intravenously as an antigen (see J. Exp. Med. 139, 1529-1539, 1974).
# A suspension of 10^5 SRBCs in 0.05 ml of physiological saline solution was injected intravenously into Slc-CDF1 mice (female, 9 weeks old). Simultaneously, histargin monohydrate in doses of 5, 0.5, 0,05 and 0.005 mg/kg was administerd once intraperitoneally as a solution dissolved in physiological saline solution.
# Four days after admnistration, a suspension of 10^8 SRBCs in 0.05 ml of physiological saline solution was injected subcutaneously to the footpads to induce D.T.H. Twenty-four hours after the subcutaneous injection, footpad swellings (increases in the foot thicknesses) were measured with a caliper. The mean footpad swelling in control animals receiving SRBCs and physiological saline solution but without the test compound was designated as C, which was set at 100 %• The mean footpad swelling in animals treated with SRBCs, physiological saline solution, and the test compound was designated as T. The ratio of T to C was calculated to evaluate the effect of the test compound to potentiate cell-mediated immunity.
# enkephalinase B = enkephalinase B inhibition (tritiated methionine enkephalin hydrolysis); type: biochemical, crab-eating monkeys; conditions: concentration of 100 µg/ml, pH 7.0
# Experimental: Enkephalinase B was obtained by homogenizing the brains of crab-eating monkeys, fractionating the homogenate, and purifying soluble fractions in accordance with the method of Hazato et al. (Biochemical and Biophysical Research Communications, Vol. 105, No. 2, pp. 470-475, 1982). The inhibitory activity of histargin against enkephalinase B was measured by the method of Hasato et al. described in the same reference.
# Ten µmol of methionine enkephalin (Tyr-Gly-Gly-Phe-Met) having the terminal tyrosine partially tritiated was used as a substrate. This substrate was hydrolyzed with enkephalinase B in 100 µl of […] Tris-hydrochloric acid buffer solution (pH 7.0). The segment, Tyr-Gly, resulting from hydrolysis was separated using a column of Porapak Q (a product of Whatman), and determined quantitatively based on its radioactivity. The results obtained when the above reaction was carried out in the presence of histargin were compared with those obtained when the reaction was performed in the absence of histargin. Based on the comparison, the enkephalinase B-inhibiting activity of histragin was evaluated.
compound,measurement,setting,value
CC(C)C[C@H](NC(=O)[C@@H](O)[C@H](N)Cc1ccccc1)C(=O)O [Bestatin],Potentiation of morphine-induced analgesia (%),"Wistar rats; 250 mg/kg, for comparison, Wistar rats",19.9%
CN1CC[C@]23c4c5ccc(O)c4O[C@H]2[C@@H](O)C=C[C@H]3[C@H]1C5 [Morphine],Potentiation of morphine-induced analgesia (%),Wistar rats; morphine only 0.5 mg/kg (control group),0%
same,Potentiation of morphine-induced analgesia (%),Wistar rats; morphine only 2 mg/kg,28.4%
same,Potentiation of morphine-induced analgesia (%),Wistar rats; morphine only 3 mg/kg,35.1%
"N=C(N)NCCCC(NCCNC(Cc1cnc[nH]1)C(=O)O)C(=O)O (centres unmarked) [histargin monohydrate, histargin]",IC50,carboxypeptidase B,33.8 µM
same,"effect on cell-mediated immunity (D.T.H. footpad swelling, T/C)",Slc-CDF1 mice,potentiates cell-mediated immunity
same,Potentiation of morphine-induced analgesia (%),"Wistar rats; 100 mg/kg intraperitoneally + 0.5 mg/kg morphine, morphine-unresponsive Wistar rats",33.8%
same,inhibition against enkephalinase B,enkephalinase B,92%
